Assay results taken from publication PMC5909127, “Optimization of a “bump-and-hole” approach to allele-selective BET bromodomain inhibition” (Chemical Science, 2018).
Like-named read-outs stand apart in the source and are kept apart here.

Legend:
Intrinsic Clearance = settings: mouse liver microsomes
BRD4 BD1 L/V = BRD4 BD1 L/V (Homo sapiens, UniProt O60885, L94V); test: competitive AlphaLISA; format: binding; settings: AlphaLISA pIC50 Value BRD4 BD1 L/V
[1] = system: L/V BET bromodomains (BD1 and BD2 of BRD2, BRD3 and BRD4); test: competitive AlphaLISA (Bio-JQ1 displacement); format: binding, human; settings: for AlphaLISA pIC50 ± SD Δ: L/V minus WT; for AlphaLISA pIC50 ± SD L/V: mean and SD of all somatic bromodomains, active enantiomer concentration
BRD2 BD1 L/V = BRD2 BD1 L/V (Homo sapiens, UniProt P25440, L110V); test: competitive AlphaLISA; format: binding
Sequence of BRD2 BD1 L/V (P25440 71-176 L110V limits assumed): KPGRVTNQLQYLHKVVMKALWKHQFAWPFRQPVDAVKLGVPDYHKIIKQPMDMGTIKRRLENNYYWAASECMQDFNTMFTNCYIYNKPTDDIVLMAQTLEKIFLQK

BRD4 BD2 WT = BRD4 BD2 WT (Homo sapiens, UniProt O60885); test: competitive AlphaLISA; format: binding
BRD4 BD1 WT = BRD4 BD1 WT (Homo sapiens, UniProt O60885); test: competitive AlphaLISA; format: binding; settings: AlphaLISA pIC50 Value BRD4 BD1 WT
Plasma Half-life = settings: BALB/c, mouse, pH 7.4
BRD2 BD2 L/V = BRD2 BD2 L/V (Homo sapiens, UniProt P25440, L383V); test: competitive AlphaLISA; format: binding
Sequence of BRD2 BD2 L/V (P25440 344-455 L383V): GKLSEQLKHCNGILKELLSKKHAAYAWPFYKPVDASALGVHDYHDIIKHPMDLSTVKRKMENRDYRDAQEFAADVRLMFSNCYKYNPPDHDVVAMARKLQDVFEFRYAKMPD

BRD3 BD1 L/V = BRD3 BD1 L/V (Homo sapiens, UniProt Q15059, L70V); test: competitive AlphaLISA; format: binding
Sequence of BRD3 BD1 L/V (Q15059 24-144 L70V limits assumed): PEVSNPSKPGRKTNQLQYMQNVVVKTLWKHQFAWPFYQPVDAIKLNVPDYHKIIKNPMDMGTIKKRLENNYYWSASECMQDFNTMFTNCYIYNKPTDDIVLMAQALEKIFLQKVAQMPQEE

BRD2 BD2 WT = BRD2 BD2 WT (Homo sapiens, UniProt P25440); test: competitive AlphaLISA; format: binding
Sequence of BRD2 BD2 WT (P25440 344-455): as the sequence (P25440 344-455 L383V) above, with V40L counted along it

BRD2 BD1 WT = BRD2 BD1 WT (Homo sapiens, UniProt P25440); test: competitive AlphaLISA; format: binding
Sequence of BRD2 BD1 WT (P25440 71-176): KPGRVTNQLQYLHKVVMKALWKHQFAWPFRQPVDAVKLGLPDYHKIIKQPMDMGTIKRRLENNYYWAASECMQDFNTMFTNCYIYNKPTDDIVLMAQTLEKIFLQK

[2] = biological target: WT BET bromodomains (BD1 and BD2 of BRD2, BRD3 and BRD4); test: competitive AlphaLISA (Bio-JQ1 displacement); format: binding, human; settings: mean and SD of all somatic bromodomains; active enantiomer concentration
BRD3 BD2 WT = BRD3 BD2 WT (Homo sapiens, UniProt Q15059); test: competitive AlphaLISA; format: binding
Sequence of BRD3 BD2 WT (Q15059 306-416): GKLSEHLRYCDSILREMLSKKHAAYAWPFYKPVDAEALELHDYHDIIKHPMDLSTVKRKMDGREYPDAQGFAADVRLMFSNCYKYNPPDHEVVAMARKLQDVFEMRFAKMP

BRDT BD1 WT = BRDT BD1 WT (Homo sapiens, UniProt Q58F21); test: competitive AlphaLISA; format: binding
BRDT BD1 L/V = BRDT BD1 L/V (Homo sapiens, UniProt Q58F21, L63V); test: competitive AlphaLISA; format: binding
BRD3 BD1 WT = BRD3 BD1 WT (Homo sapiens, UniProt Q15059); test: competitive AlphaLISA; format: binding
Sequence of BRD3 BD1 WT (Q15059 24-144): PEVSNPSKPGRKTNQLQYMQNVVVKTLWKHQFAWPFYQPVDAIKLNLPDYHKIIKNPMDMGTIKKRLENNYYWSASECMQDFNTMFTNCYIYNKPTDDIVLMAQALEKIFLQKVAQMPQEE

BRD3 BD2 L/V = BRD3 BD2 L/V (Homo sapiens, UniProt Q15059, L345V); test: competitive AlphaLISA; format: binding
Sequence of BRD3 BD2 L/V (Q15059 306-416 L345V limits assumed): as the sequence (Q15059 306-416) above, with L40V counted along it

BRD4 BD2 L/V = BRD4 BD2 L/V (Homo sapiens, UniProt O60885, L387V); test: competitive AlphaLISA; format: binding
BRDT BD2 L/V = BRDT BD2 L/V (Homo sapiens, UniProt Q58F21, L306V); test: competitive AlphaLISA; format: binding
BRDT BD2 WT = BRDT BD2 WT (Homo sapiens, UniProt Q58F21); test: competitive AlphaLISA; format: binding

SMILES	CL int (Intrinsic Clearance) [ml min^–1 g^–1]	IC50 (BRD4 BD1 L/V) [µM]	AlphaLISA pIC50 ± SD Δ [1]	AlphaLISA pIC50 ± SD L/V [1]	IC50 (BRD2 BD1 L/V) [µM]	IC50 (BRD4 BD2 WT) [µM]	IC50 (BRD4 BD1 WT) [µM]	half-life at 50 µM (Plasma Half-life) [h]	IC50 (BRD2 BD2 L/V) [µM]	IC50 (BRD3 BD1 L/V) [µM]	IC50 (BRD2 BD2 WT) [µM]	IC50 (BRD2 BD1 WT) [µM]	AlphaLISA pIC50 ± SD WT [2]	IC50 (BRD3 BD2 WT) [µM]	IC50 (BRDT BD1 WT) [µM]	IC50 (BRDT BD1 L/V) [µM]	IC50 (BRD3 BD1 WT) [µM]	IC50 (BRD3 BD2 L/V) [µM]	IC50 (BRD4 BD2 L/V) [µM]	IC50 (BRDT BD2 WT) [µM]	further results
CCC[C@@H](C(=O)OC)[C@@H]1N=C(c2ccc(Cl)cc2)c2cc(OC)ccc2-n2c(C)nnc21 (relative stereo) [Compound 6]	5.2	7.94	0.6 ± 0.2	5.0 ± 0.1	10	63.1	25.1	> 3	10	6.31	> 100	31.6	4.5 ± 0.2	20	31.6	25.1	20	10	–	–	selectivity (L/V over WT, AlphaLISA) [1]: less than 10 fold
CCN(CC)C(=O)[C@H](C)[C@@H]1N=C(c2ccc(Cl)cc2)c2cc(OC)ccc2-n2c(C)nnc21 (relative stereo) [Compound 19]	>50	1.26	1.2 ± 0.2	6.1 ± 0.2	1	25.1	–	> 3	1	0.398	25.1	–	4.9 ± 0.2	–	39.8	3.98	5.01	0.501	1.26	25.1	IC50 (BRDT BD2 L/V): 3.16 µM
CC[C@@H](C(=O)N(CC)CC)[C@@H]1N=C(c2ccc(Cl)cc2)c2cc(OC)ccc2-n2c(C)nnc21 (relative stereo) [Compound 20]	>50	1.26	1.2 ± 0.2	5.8 ± 0.2	2	31.6	25.1	> 3	1.58	0.501	15.8	31.6	4.6 ± 0.1	25.1	39.8	6.31	20	1.58	3.16	39.8	IC50 (BRDT BD2 L/V): 6.31 µM
Cc1sc2c(c1C)C(c1ccc(Cl)cc1)=N[C@@H](CC(=O)OC(C)(C)C)c1nnc(C)n1-2 [(+)JQ1, reference compound]	7.5	–	–0.1 ± 0.1	–	–	–	–	> 3	–	–	–	–	–	–	–	–	–	–	–	–	–
COC(=O)CC1N=C(c2ccc(Cl)cc2)c2ccc(OC)cc2-n2c(C)nnc21 (stereo not drawn) [Compound 2]	1.7	1	0.1 ± 0.1	5.9 ± 0.2	1.58	2.51	1	1.12	2	0.501	2.51	2	5.8 ± 0.2	2.51	2	1.58	–	1	2.51	3.98	IC50 (BRDT BD2 L/V): 3.16 µM
CC[C@@H](C(=O)OC(C)(C)C)[C@@H]1N=C(c2ccc(Cl)cc2)c2cc(OC)ccc2-n2c(C)nnc21 [Compound 23]	30.7	0.794	0.7 ± 0.1	6.0 ± 0.2	1.58	6.31	5.01	> 3	1	0.398	5.01	5.01	5.3 ± 0.1	5.01	6.31	2.51	2.51	0.794	1.58	6.31	IC50 (BRDT BD2 L/V): 2.51 µM
C=CC[C@@H](C(=O)OC(C)(C)C)[C@@H]1N=C(c2ccc(Cl)cc2)c2cc(OC)ccc2-n2c(C)nnc21 [Compound 24]	39.1	–	0.9 ± 0.2	6.2 ± 0.2	1.26	3.98	5.01	> 3	0.501	0.316	7.94	5.01	5.3 ± 0.1	6.31	7.94	2	3.98	0.794	1	10	IC50 (BRDT BD2 L/V): 1.58 µM
CC[C@@H](C(=O)OC(C)(C)C)[C@@H]1N=C(c2ccc(Cl)cc2)c2ccc(OC)cc2-n2c(C)nnc21 [Compound 25]	31.0	7.94	0.4 ± 0.2	5.0 ± 0.2	10	25.1	15.8	> 3	–	5.01	20	39.8	4.6 ± 0.1	25.1	25.1	–	20	10	20	39.8	–
C=CC[C@@H](C(=O)OC(C)(C)C)[C@@H]1N=C(c2ccc(Cl)cc2)c2ccc(OC)cc2-n2c(C)nnc21 [Compound 26]	39.4	1.58	0.5 ± 0.1	5.8 ± 0.2	2.51	10	6.31	> 3	1.58	1.26	6.31	7.94	5.2 ± 0.2	5.01	10	3.98	3.16	1.26	3.16	10	IC50 (BRDT BD2 L/V): 2.51 µM
CCNC(=O)C[C@@H]1N=C(c2ccc(Cl)cc2)c2cc(OC)ccc2-n2c(C)nnc21 [I-BET762, reference compound]	–	–	–	–	–	–	–	–	–	–	–	–	–	–	–	–	–	–	–	–	IC50 (BRDT BD1 L/V; read-out: AlphaLISA pIC50 Value BRDT BD1 L/V (converted)): 1 µM
